Data as given in patent US6555582B1, “Eye treatments using synthetic thyroid hormone compositions” (The Regents of the University of California, priority 1996, dated 2003).
Where two headings read alike, the source gives them in different places.

What was measured:
[1] = test system: HTM cells; settings: 10^−7M
Protocol: The assay system visualizes the cell's extracellular matrix by taking advantage of its ability to exclude added formalized red blood cells from an area around the cell. Proteoglycan monomer and HA are added to the cells in excess as pericellular matrix assembly is observed by microscopy.
HTM cells were plated on 35-mm dishes at a density of 1×10^4 cells per plate. […] For exogenous matrix assembly, cells were then incubated for 3 hours at 37° C. with 3.0 mg/ml of aggregating proteoglycan monomer (purified from rat chondrosarcoma tumor (Ref. 1)) and 15 μg/ml of hyaluronan (grade 1, Sigma Chemical Co., St. Louis, Mo.). The medium was removed and 0.75 ml of a suspension of formaldehyde fixed red blood cells (1×10^8 cells/ml) in phosphate buffered saline with 0.1% bovine serum albumin was added to each well of cells. After 10 minutes the cells and extracellular matrices (ECMs) were observed visualized by phase contrast microscopy (REF 2, 3). The cell matrices were categorized into one of three groups. Cells having no coats have no visible ECM. Cells having small coats have a visible ECM that extends less than the width of the cell's nucleus out from the cell's plasma membrane. Cells having large coats have a visible ECM that extends greater than the width of the cell's nucleus out from the cell's plasma membrane.

[2] = test system: Normal pigmented Dutch rabbits
[3] = test system: HTM cells; settings: 10^−7 M, non-confluent cultures, serum-free, day 10, vs controls lacking T3
[4] = test system: HTM cells; settings: for reduction in HA secretion: T3-supplemented vs T3-stripped media (No Tx)
[5] = test system: CD44-v 3; settings: HTM cells exposed to supplemental T3 for 18 hours
Protocol: (§1) To investigate whether CD44 receptors are expressed by HTM cells, four CD44 isoforms can be measured using RT-PCR analysis with probes for CD44s, CD44E, CD44-v1 and CD44-v3. […] RNA was made using RNA TrackTM (Biotecx, Friendswood, Tex.). The RNA was used as a template for the first strand synthesis of cDNA in a reaction mixture containing 1000 U Moloney Murine Leukemia Virus Reverse Transcriptase (BRL, Gaithersburg, Md.), 50 mM random hexamer primer, 50 mM Tris-HCl (pH 8.3), 75 mM KCl, 10 mM dithiothreitol, 3 mM MgC12, 0.5 mM each of dGTP, dATP, dTTP and dCTP in 60 ul total volume. The cDNA reactions were carried out at 37° C. for 90 min, and then diluted 1:3 or 1:7 in water, pretreated with DEPC. Oligonucleotide primers were diluted to 40 μM in water.
(§2) For RT-PCR, a modified hot start method was used. A quantity of 3-5 μl of cDNA was added to 30 μl of a master mix containing 0.8 μl of each primer, 17 mM Tris-HCI (pH 8.3) and 80 mM KCI. Water was added to the cDNA reactions to a final volume of 40 μl. All reactions were overlaid with light mineral oil and heated to 99° C. After 10 min the reactions were cooled to 94° C. and a 10 μl volume containing 7 mM MgCI2, 1 mM each of dATP, dTTP, dGTP and dCTP, and 1.2 U Taq Polymerase (Perkin-Elmer Cetus, Branchburg, N.J.) was added directly through the oil overlay. […]

[6] = test system: CD44E; settings: HTM cells exposed to supplemental T3 for 18 hours
Protocol: as §1, §2

3,3′-5-triiodo-L-thyronine [T3]
fold greater number of cells with no coats than cells grown in the absence of T3 ([1]; 2 days): ~2 fold | fold greater number of cells with no coats than cells grown in the absence of T3 ([1]; 4 days): more than 4 fold | decrease in IOP within three weeks of administration ([2]; five rabbits): at least some detectable decrease in IOP | largest decrease in IOP after three weeks of T3 administration ([2]; one rabbit): 25% | fold increase in secreted hyaluronidase activity [3]: 1.9 fold | fold reduction in secreted HA concentration ([4]; 10^−7 M, confluent cells, day 5, vs control cultures): 2.95 fold | reduction in HA secretion ([4]; day 2, FIG. 1): 57% | reduction in HA secretion ([4]; day 4, FIG. 1): 66% | T3 concentration of maximal inhibition of HA production ([4]; cultured HTM cells, FIG. 2): 10^−7-10^−6 M | reduction of HA concentration in the media, non-confluent vs confluent treated cells ([4]; non-confluent (less than 75% confluent) cells): even greater reduction | EC50 ([4]; read-out: half maximal concentration for reduction of HA concentration, confluent cells, dose response curve FIG. 2): ~5 nM | expression of CD44-v 3 isoform [5]: dramatic reduction | expression of CD44E isoform [6]: dramatic reduction
